{
  "source": "the supplement of paper PMC10307832",
  "assay_in_all_cases": "relative viability (nuclei count vs DMSO), 5 days (fraction); higher = more cells survive",
  "key": {"[1]": {"tested_on": "LCLC-97TM1", "in_short": "(§1)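 Each reported value is a median over duplicate plates. It expresses relative viability: treated-well nuclei count divided by vehicle-well nuclei count. Lung cancer cell lines in 1536-well plates were dosed by pin tool a day after seeding, alone with one drug or with a fixed anchor-drug dose plus five library-drug doses (not always all listed) in √10 steps, and nuclei were counted after 5 days.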"}, "[2]": {"tested_on": "LU99A", "in_short": "as §1"}, "[3]": {"tested_on": "LXF-289", "in_short": "as §1"}, "[4]": {"tested_on": "NCI-H1993", "in_short": "as §1"}, "[5]": {"tested_on": "NCI-H2009", "in_short": "as §1"}, "[6]": {"tested_on": "NCI-H2087", "in_short": "as §1"}, "[7]": {"tested_on": "NCI-H2126", "in_short": "as §1"}, "[8]": {"tested_on": "NCI-H2170", "in_short": "as §1"}, "[9]": {"tested_on": "NCI-H727", "in_short": "as §1"}, "[10]": {"tested_on": "PC-14", "in_short": "as §1"}, "[11]": {"tested_on": "PC-3 [JPC-3]", "in_short": "as §1"}, "[12]": {"tested_on": "SK-MES-1", "in_short": "as §1"}},
  "data": [
    {"smiles": "O=c1[nH]c2ccccc2n1C1CCN(CCCC(c2ccc(F)cc2)c2ccc(F)cc2)CC1", "note": "[Pimozide] + N=C(N)NC(=N)NCCc1ccccc1 [Phenformin] (partner 250 µM)", "values": [
      {"measurement": "relative viability", "setting": "[1]; first compound 2.53 µM", "value": 0.418},
      {"measurement": "relative viability", "setting": "[1]; first compound 8 µM", "value": 0.413},
      {"measurement": "relative viability", "setting": "[2]; first compound 0.08 µM", "value": 0.803},
      {"measurement": "relative viability", "setting": "[2]; first compound 0.253 µM", "value": 0.837},
      {"measurement": "relative viability", "setting": "[2]; first compound 0.8 µM", "value": 0.573},
      {"measurement": "relative viability", "setting": "[2]; first compound 2.53 µM", "value": 0.765},
      {"measurement": "relative viability", "setting": "[2]; first compound 8 µM", "value": 0.897},
      {"measurement": "relative viability", "setting": "[3]; first compound 0.08 µM", "value": 0.501},
      {"measurement": "relative viability", "setting": "[3]; first compound 0.253 µM", "value": 0.502},
      {"measurement": "relative viability", "setting": "[3]; first compound 0.8 µM", "value": 0.475},
      {"measurement": "relative viability", "setting": "[3]; first compound 2.53 µM", "value": 0.505},
      {"measurement": "relative viability", "setting": "[3]; first compound 8 µM", "value": 0.487},
      {"measurement": "relative viability", "setting": "[4]; first compound 0.08 µM", "value": 0.477},
      {"measurement": "relative viability", "setting": "[4]; first compound 0.253 µM", "value": 0.509},
      {"measurement": "relative viability", "setting": "[4]; first compound 0.8 µM", "value": 0.455},
      {"measurement": "relative viability", "setting": "[4]; first compound 2.53 µM", "value": 0.522},
      {"measurement": "relative viability", "setting": "[4]; first compound 8 µM", "value": 0.49},
      {"measurement": "relative viability", "setting": "[5]; first compound 0.08 µM", "value": 0.476},
      {"measurement": "relative viability", "setting": "[5]; first compound 0.253 µM", "value": 0.479},
      {"measurement": "relative viability", "setting": "[5]; first compound 0.8 µM", "value": 0.507},
      {"measurement": "relative viability", "setting": "[5]; first compound 2.53 µM", "value": 0.46},
      {"measurement": "relative viability", "setting": "[5]; first compound 8 µM", "value": 0.391},
      {"measurement": "relative viability", "setting": "[6]; first compound 0.08 µM", "value": 0.5},
      {"measurement": "relative viability", "setting": "[6]; first compound 0.253 µM", "value": 0.47},
      {"measurement": "relative viability", "setting": "[6]; first compound 2.53 µM", "value": 0.464},
      {"measurement": "relative viability", "setting": "[6]; first compound 8 µM", "value": 0.393},
      {"measurement": "relative viability", "setting": "[7]; first compound 0.08 µM", "value": 0.513},
      {"measurement": "relative viability", "setting": "[7]; first compound 0.253 µM", "value": 0.519},
      {"measurement": "relative viability", "setting": "[7]; first compound 0.8 µM", "value": 0.464},
      {"measurement": "relative viability", "setting": "[7]; first compound 2.53 µM", "value": 0.525},
      {"measurement": "relative viability", "setting": "[7]; first compound 8 µM", "value": 0.584},
      {"measurement": "relative viability", "setting": "[8]; first compound 0.08 µM", "value": 0.411},
      {"measurement": "relative viability", "setting": "[8]; first compound 0.253 µM", "value": 0.383},
      {"measurement": "relative viability", "setting": "[8]; first compound 0.8 µM", "value": 0.44},
      {"measurement": "relative viability", "setting": "[8]; first compound 2.53 µM", "value": 0.399},
      {"measurement": "relative viability", "setting": "[8]; first compound 8 µM", "value": 0.367},
      {"measurement": "relative viability", "setting": "[9]; first compound 0.08 µM", "value": 0.467},
      {"measurement": "relative viability", "setting": "[9]; first compound 0.253 µM", "value": 0.641},
      {"measurement": "relative viability", "setting": "[9]; first compound 0.8 µM", "value": 0.448},
      {"measurement": "relative viability", "setting": "[9]; first compound 2.53 µM", "value": 0.684},
      {"measurement": "relative viability", "setting": "[9]; first compound 8 µM", "value": 0.577},
      {"measurement": "relative viability", "setting": "[10]; first compound 0.253 µM", "value": 0.451},
      {"measurement": "relative viability", "setting": "[10]; first compound 2.53 µM", "value": 0.4},
      {"measurement": "relative viability", "setting": "[10]; first compound 8 µM", "value": 0.517},
      {"measurement": "relative viability", "setting": "[11]; first compound 0.08 µM", "value": 0.357},
      {"measurement": "relative viability", "setting": "[11]; first compound 0.253 µM", "value": 0.469},
      {"measurement": "relative viability", "setting": "[11]; first compound 0.8 µM", "value": 0.451},
      {"measurement": "relative viability", "setting": "[11]; first compound 2.53 µM", "value": 0.486},
      {"measurement": "relative viability", "setting": "[11]; first compound 8 µM", "value": 0.403},
      {"measurement": "relative viability", "setting": "[12]; first compound 0.08 µM", "value": 0.628},
      {"measurement": "relative viability", "setting": "[12]; first compound 0.253 µM", "value": 0.619},
      {"measurement": "relative viability", "setting": "[12]; first compound 0.8 µM", "value": 0.664},
      {"measurement": "relative viability", "setting": "[12]; first compound 2.53 µM", "value": 0.587},
      {"measurement": "relative viability", "setting": "[12]; first compound 8 µM", "value": 0.603}
    ]}
  ]
}
